Assay results published in patent EP0457908A1, “HYDROCHLORIDE 2,3,3a,4,5,6-HEXAHYDRO-8-CYCLOHEXYL-1H-PYRAZINO (3,2,1-j,k)CARBAZOL, METHOD OF OBTAINING IT AND A PHARMACEUTICAL PREPARATION OF ANTIDEPRESSIVE ACTION BASED ON IT” (priority 1989, dated 1991).

How the values were obtained:
patients = assay: Clinical test on patients with depressions; type: in vivo, human beings
Description: The drug according to the present invention was tested in a clinic on patients (561 persons) aged 18 to 72 suffering from depressions of various genesis - endogenous, reactive, neurotic depressions caused by organic injuries of the brain, as well as depressive disturbances in chronical alcoholism and the like.
Clinical tests for different types of depressions were carried out in the following groups of patients:
The drug according to the present invention was administered orally in tablets twice a day - in the morning and in the afternoon. The dose depended on the severity of disease, efficiency and tolerance of the drug.
The treatment was usually started with administration of the drug in single doses of 0.025 g (25 mg) with a gradual increment of the daily dose for 1 to 3 weeks up to 200-300 to 350-400 mg.
The treatment duration ranged from 7 days to 12 weeks, more frequently 40-45 days.
In a number of cases (55 patients) the drug according to the present invention was administered in combination with other psychotropic agents selected mainly from the group of tranquilizers and neuroleptics (tazepam, seduxen, tizercin, and the like).
The efficiency as the drug according to the present invention was assessed with the use of assessment scales.

[1] = system: fruit fly, embryonic cells of rats, bone-marrow cells of mice, culture of human lymphocytes; assay: Mutagenous effect tests; details: genetic mutations, dominant lethal mutations, chromosome aberrations
Description: The compound according to the present invention was also tested for a possible mutagenous effect by methods of evaluation of genetic mutations on fruit fly: dominant lethal mutations were studied on embryonic cells of rats, chromosome aberrations - in bone-marrow cells of mice and in a culture of human lymphocytes.

Solubility = type: physicochemical
[2] = Overall comparison of pharmacological parameters with pyrazidol; type: in vivo; details: certain pharmacological parameters
monoaminoxidase [3] = assay: Monoaminoxidase activity in brain and liver homogenates after oral dosing; type: in vivo, male white rats
Description: (§1) The effect of the compound according to the present invention on the activity of monoaminoxidase was studied in special biochemical investigations.
(§2) The experiments were conducted in vivo on male white rats with a mass of 180-200 g. The compound in the doses of 5, 10, 25 and 50 mg/kg was administered orally. An equal volume of a […] of NaCl was administered to control animals. 1.5 hour after administration of the drug the animals were killed. […] The activity of monoaminoxidase was determined in 50% homogenates of the liver and brains of rate prepared on the basis of a 0.1 M phosphate buffer (pH = 7.4) containing 2% of a detergent - Trytol X-100. The substrates were used in concentrations of serotonin 10 µmol, tyramine 6 µmol per sample. The activity of monoaminoxidase was evaluated by liberation of ammonia during incubation of the samples for 50 minutes at the temperature of 37 °C in an oxygen atmosphere.
(§3) Protein in homogenates of the rat liver and brain was determined following the Peterson procedure (1977).

monoaminoxidase [4] = biological target: T1, monoaminoxidase (Rattus norvegicus, UniProt P21396); assay: as above; type: in vivo, male white rats
T1 sequence (P21396 1-526): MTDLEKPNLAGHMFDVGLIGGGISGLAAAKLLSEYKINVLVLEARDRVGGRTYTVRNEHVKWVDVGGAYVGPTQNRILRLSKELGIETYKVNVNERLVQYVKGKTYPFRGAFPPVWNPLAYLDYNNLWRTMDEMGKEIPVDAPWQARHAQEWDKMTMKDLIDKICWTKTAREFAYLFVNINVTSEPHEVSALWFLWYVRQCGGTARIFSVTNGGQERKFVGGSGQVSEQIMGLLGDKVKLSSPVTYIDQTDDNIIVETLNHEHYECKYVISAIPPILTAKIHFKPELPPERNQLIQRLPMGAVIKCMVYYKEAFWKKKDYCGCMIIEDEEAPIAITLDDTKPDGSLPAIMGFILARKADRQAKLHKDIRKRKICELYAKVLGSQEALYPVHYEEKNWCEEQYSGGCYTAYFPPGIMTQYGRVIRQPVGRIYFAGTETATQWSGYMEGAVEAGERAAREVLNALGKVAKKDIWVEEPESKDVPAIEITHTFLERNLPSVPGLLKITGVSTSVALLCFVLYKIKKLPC
Description: as §1, §2, §3

male rats = assay: Conditional reflex of passive avoidance after amnesia (antiamnestic effect); type: in vivo; details: 1 mg/kg oral
Description: Also studied was the effect of the compound according to the present invention on reproduction of the memory traces upon amnesia.
The experiments were carried out using male rats of a mass of 180-220 g.
The antiamnestic effect of the compound according to the present invention was assessed by the method of a conditional reflex of a passive avoidance with a subsequent use, as amnesic factors, of an electric shock (50 mA, 0.3 ms) through ear electrodes or scopolamine (1 mg/kg hypodermally).
The learning of the conditional reflex of a passive avoidance was effected by the "Step-down" method (Izquerdo, 1981) in an experimental unit consisting of a 30x30x40 cm chamber with an electrified floor having in its centre a plastic platform of 10x15x0.5 cm size. A rat was placed onto the platform and a latent period of its escape therefrom was recorded (in seconds). When escaping the platform onto the floor, the rat was subjected to an electric irritation on paws (0.5 mA, 10 seconds) that made it to climb the platform. The learning course took 6 sessions, each of 3 minutes duration. The conditional response was regarded as acquired if an animal remained on the platform for 1 minute.
The amnesic effect was produced immediately after learning course and 30 minutes thereafter the compound according to the present invention was administered in the doses of 1 and 3 mg/kg or (for comparison) pyracetam was administered in the doses of 100, 300, 600 and 1,000 mg/kg. The reproduction of the memory trace was assessed 24 hours after the electric shock and 2.5 hours after administration of scopolamine.

[5] = endogenous depressions (maniac-depressive psychosis, schizophrenia), asthenic or asthenoadynamic syndromes, light and medium severity
[6] = 5 mg/kg oral, 1.5 hour after administration
[7] = 10 mg/kg oral, 1.5 hour after administration
[8] = 25 mg/kg oral, 1.5 hour after administration (Table 5)
[9] = 25 mg/kg orally, time 1.5 hours (Table 6)
[10] = 25 mg/kg orally, time 6.0 hours
[11] = 25 mg/kg orally, time 48.0 hours
[12] = 50 mg/kg oral, 1.5 hour after administration

2,3,3a,4,5,6-hexahydro-8-cyclohexyl-1H-pyrazino-(3,2,1-j,k)-carbazole hydrochloride [Compound of the present invention]
improvement observed, % of cases (patients; depressive disorders of the neurotic and reactive genesis): 80-100% | improvement observed, % of the events (patients; [5]): 37-92% | improvement observed, % of the events, on the average (patients; [5]): 50% | patients with a previous resistance to another antidepressant therapy in whom the drug was highly effective (patients; human, in vivo): 6 out of 21 | toleration by patients (patients; human, in vivo): good toleration by patients | mutagenic properties [1]: revealed no mutagenic properties | solubility in a 95% ethanol and chloroform (Solubility): very sparingly soluble | solubility in water and ether (Solubility): substantially insoluble | more active than the known preparation pyrazidol [2]: 2-10 times | Inhibition of deamination, % (M±m), Brain, Tyramine (monoaminoxidase [3]; [6]): 17±4.2% | Inhibition of deamination, % (M±m), Liver, Tyramine (monoaminoxidase [3]; [6]): 0% | Inhibition of deamination, % (M±m), Brain, Tyramine (monoaminoxidase [3]; [7]): 16.6±3.4% | Inhibition of deamination, % (M±m), Liver, Tyramine (monoaminoxidase [3]; [7]): 0% | Inhibition of deamination, % (M±m), Brain, Tyramine (monoaminoxidase [3]; [8]): 40±3.0% | Inhibition of deamination, % (M±m), Liver, Tyramine (monoaminoxidase [3]; [8]): 0% | time after which the activity of monoaminoxidase was fully restored (monoaminoxidase [3]; 25 mg/kg orally): 48 h | Inhibition of deamination, % (M±m), Brain, Tyramine (monoaminoxidase [3]; [9]): 40.0±3.0% | Inhibition of deamination, % (M±m), Liver, Tyramine (monoaminoxidase [3]; [9]): 0% | Inhibition of deamination, % (M±m), Brain, Tyramine (monoaminoxidase [3]; [10]): 36.0±9.3% | Inhibition of deamination, % (M±m), Liver, Tyramine (monoaminoxidase [3]; [10]): 0% | Inhibition of deamination, % (M±m), Brain, Tyramine (monoaminoxidase [3]; [11]): 2.5±1.1% | Inhibition of deamination, % (M±m), Liver, Tyramine (monoaminoxidase [3]; [11]): 0% | Inhibition of deamination, % (M±m), Brain, Tyramine (monoaminoxidase [3]; [12]): 43±6.6% | Inhibition of deamination, % (M±m), Liver, Tyramine (monoaminoxidase [3]; [12]): 0% | character of the inhibiting effect on the activity of monoaminoxidase (monoaminoxidase [3]; rat, in vivo): reversible selective inhibitor of monoaminoxidase of the A type | Inhibition of deamination, % (M±m), Liver, Serotonin (monoaminoxidase [4]; [6]): 36±9.0% | Inhibition of deamination, % (M±m), Brain, Serotonin (monoaminoxidase [4]; 5 mg/kg oral, 1.5 hour after administration, listed as Compound of the invention, hydrochloride): 60±6.3% | Inhibition of deamination, % (M±m), Brain, Serotonin (monoaminoxidase [4]; 5 mg/kg oral, 1.5 hour after administration, listed as compound according to the present invention, hydrochloride): 60% | Inhibition of deamination, % (M±m), Brain, Serotonin (monoaminoxidase [4]; [7]): 61±7.6% | Inhibition of deamination, % (M±m), Liver, Serotonin (monoaminoxidase [4]; [7]): 27±6.7% | Inhibition of deamination, % (M±m), Brain, Serotonin (monoaminoxidase [4]; [8]): 71±7.6% | Inhibition of deamination, % (M±m), Liver, Serotonin (monoaminoxidase [4]; [8]): 64±6.4% | Inhibition of deamination, % (M±m), Brain, Serotonin (monoaminoxidase [4]; [9]): 71.0±2.0% | Inhibition of deamination, % (M±m), Liver, Serotonin (monoaminoxidase [4]; [9]): 64.0±6.4% | Inhibition of deamination, % (M±m), Brain, Serotonin (monoaminoxidase [4]; [10]): 66.5±3.0% | Inhibition of deamination, % (M±m), Liver, Serotonin (monoaminoxidase [4]; [10]): 53.0±3.0% | Inhibition of deamination, % (M±m), Brain, Serotonin (monoaminoxidase [4]; [11]): 14.0±4.8% | Inhibition of deamination, % (M±m), Liver, Serotonin (monoaminoxidase [4]; [11]): 0% | Inhibition of deamination, % (M±m), Brain, Serotonin (monoaminoxidase [4]; [12]): 93±3.0% | Inhibition of deamination, % (M±m), Liver, Serotonin (monoaminoxidase [4]; [12]): 89±2.7% | Number of rats, %, remained on the platform for 1 minute, 2.5 hours after administration of scopolamine (1 mg/kg hypodermally) (male rats; amnesia control 10±3.3, distilled water 85±2.0): 22±6.0% | Number of rats, %, remained on the platform for 1 minute, 1 day after electric shock (male rats; electroshock alone 14.2±3.0, distilled water 85±2.0): 25±3.2%
